Source: ChEMBL document CHEMBL1909046, “DrugMatrix in vitro pharmacology data”

How the values were obtained:
[1] = target: T1, Alpha-1A adrenergic receptor (Rattus norvegicus, UniProt P43140); experiment: DRUGMATRIX: Alpha-1A adrenergic receptor radioligand binding (ligand: prazosin); assay type: cell membranes, Wistar, Submaxillary gland, Membrane; conditions: Not Active = under 50% inhibition at 10 µM
T1 sequence (P43140 whole entry): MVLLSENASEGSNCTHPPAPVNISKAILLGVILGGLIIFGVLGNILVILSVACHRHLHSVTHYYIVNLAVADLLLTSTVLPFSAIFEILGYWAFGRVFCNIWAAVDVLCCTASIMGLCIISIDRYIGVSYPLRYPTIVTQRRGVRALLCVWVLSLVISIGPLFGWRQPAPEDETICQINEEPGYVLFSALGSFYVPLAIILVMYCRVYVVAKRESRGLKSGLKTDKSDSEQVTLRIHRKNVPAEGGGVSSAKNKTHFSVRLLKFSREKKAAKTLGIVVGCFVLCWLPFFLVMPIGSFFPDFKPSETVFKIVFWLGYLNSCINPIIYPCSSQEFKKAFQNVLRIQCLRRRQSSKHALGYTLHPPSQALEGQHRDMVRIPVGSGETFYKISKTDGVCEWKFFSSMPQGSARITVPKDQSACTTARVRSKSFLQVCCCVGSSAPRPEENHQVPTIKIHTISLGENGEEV

[2] = target: Platelet-activating factor receptor (Homo sapiens, UniProt P25105); assay type: tissue-based; also: in other assays of this panel Not Active means under 50% inhibition at 10 µM
Platelet-activating factor receptor, sequence (P25105 whole entry): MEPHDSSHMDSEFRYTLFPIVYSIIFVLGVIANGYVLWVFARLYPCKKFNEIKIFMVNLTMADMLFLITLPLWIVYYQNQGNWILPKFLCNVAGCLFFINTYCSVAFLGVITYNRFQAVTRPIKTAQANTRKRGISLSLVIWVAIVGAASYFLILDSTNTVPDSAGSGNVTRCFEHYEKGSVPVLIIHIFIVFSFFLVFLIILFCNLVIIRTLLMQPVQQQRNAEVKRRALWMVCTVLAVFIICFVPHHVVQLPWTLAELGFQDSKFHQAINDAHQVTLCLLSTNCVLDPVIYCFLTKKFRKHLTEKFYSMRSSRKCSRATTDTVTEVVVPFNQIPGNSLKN

[3] = DRUGMATRIX: Calcium Channel Type L, Dihydropyridine radioligand binding (ligand: [3H] Nitrendipine); assay type: cell membranes, Rattus norvegicus, Wistar, Cerebral cortex, Membrane; conditions: Not Active = under 50% inhibition at 10 µM
[4] = target: C-C chemokine receptor type 5 (Homo sapiens, UniProt P51681); assay type: cell membranes, Membrane; conditions: hek293; also: in other assays of this panel Not Active means under 50% inhibition at 10 µM
C-C chemokine receptor type 5, sequence (P51681 whole entry): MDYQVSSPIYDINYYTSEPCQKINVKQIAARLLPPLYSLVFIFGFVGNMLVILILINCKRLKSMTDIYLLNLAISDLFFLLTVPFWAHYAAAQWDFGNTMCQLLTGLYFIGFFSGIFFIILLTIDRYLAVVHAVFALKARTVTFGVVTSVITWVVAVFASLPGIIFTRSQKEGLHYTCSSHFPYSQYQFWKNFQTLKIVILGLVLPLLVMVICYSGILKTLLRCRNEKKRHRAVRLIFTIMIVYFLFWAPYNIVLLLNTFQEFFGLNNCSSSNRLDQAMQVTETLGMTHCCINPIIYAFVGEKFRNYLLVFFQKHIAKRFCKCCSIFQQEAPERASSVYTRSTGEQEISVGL

[5] = target: T2, Muscarinic acetylcholine receptor M2 (Homo sapiens, UniProt P08172); assay type: cell membranes, CHO-K1, Membrane; conditions: cho-k1; also: in other assays of this panel Not Active means under 50% inhibition at 10 µM
T2 sequence (P08172 whole entry): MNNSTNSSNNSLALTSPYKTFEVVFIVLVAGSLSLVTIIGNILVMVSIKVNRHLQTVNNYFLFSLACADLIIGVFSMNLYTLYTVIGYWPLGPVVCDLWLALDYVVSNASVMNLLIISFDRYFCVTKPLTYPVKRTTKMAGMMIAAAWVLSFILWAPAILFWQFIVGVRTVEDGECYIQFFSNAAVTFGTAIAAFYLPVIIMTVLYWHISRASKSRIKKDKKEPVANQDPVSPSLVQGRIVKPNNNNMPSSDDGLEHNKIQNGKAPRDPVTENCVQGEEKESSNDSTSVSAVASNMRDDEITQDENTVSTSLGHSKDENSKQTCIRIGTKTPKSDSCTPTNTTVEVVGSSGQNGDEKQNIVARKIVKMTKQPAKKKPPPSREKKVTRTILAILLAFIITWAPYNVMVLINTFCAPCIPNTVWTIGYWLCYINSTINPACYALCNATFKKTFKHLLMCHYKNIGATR

[6] = target: Matrix metalloproteinase-9 (Homo sapiens, UniProt P14780); assay type: cell-based;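 also: inhibition of isolated MMP-9 enzyme activity toward a synthetic peptide substrate, from the DrugMatrix protease screening panel; in other assays of this panel Not Active means under 50% inhibition at 10 µM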
Matrix metalloproteinase-9, sequence (P14780 whole entry): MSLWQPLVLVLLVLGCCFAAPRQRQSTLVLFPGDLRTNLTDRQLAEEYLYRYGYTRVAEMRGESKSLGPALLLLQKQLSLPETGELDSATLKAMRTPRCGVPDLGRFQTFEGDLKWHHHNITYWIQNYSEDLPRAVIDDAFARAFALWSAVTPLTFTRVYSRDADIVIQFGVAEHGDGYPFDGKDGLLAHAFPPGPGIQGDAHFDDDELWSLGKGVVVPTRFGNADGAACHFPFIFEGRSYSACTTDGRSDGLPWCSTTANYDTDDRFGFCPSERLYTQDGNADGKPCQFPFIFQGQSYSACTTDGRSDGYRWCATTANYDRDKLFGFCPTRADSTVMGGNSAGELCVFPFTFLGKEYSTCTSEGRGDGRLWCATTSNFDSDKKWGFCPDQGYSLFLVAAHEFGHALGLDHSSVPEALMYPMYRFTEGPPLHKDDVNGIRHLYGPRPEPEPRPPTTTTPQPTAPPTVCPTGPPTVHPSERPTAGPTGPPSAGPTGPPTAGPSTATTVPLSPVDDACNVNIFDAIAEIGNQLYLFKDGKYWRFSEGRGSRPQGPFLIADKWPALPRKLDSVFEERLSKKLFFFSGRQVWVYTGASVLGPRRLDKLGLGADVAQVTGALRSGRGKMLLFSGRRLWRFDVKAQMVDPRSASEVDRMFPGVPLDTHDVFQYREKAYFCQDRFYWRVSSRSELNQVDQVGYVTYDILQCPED

[7] = target: T3, Calcitonin receptor (Homo sapiens, UniProt P30988); assay type: cell membranes, Membrane; conditions: t47d; also: in other assays of this panel Not Active means under 50% inhibition at 10 µM
T3 sequence (P30988 whole entry): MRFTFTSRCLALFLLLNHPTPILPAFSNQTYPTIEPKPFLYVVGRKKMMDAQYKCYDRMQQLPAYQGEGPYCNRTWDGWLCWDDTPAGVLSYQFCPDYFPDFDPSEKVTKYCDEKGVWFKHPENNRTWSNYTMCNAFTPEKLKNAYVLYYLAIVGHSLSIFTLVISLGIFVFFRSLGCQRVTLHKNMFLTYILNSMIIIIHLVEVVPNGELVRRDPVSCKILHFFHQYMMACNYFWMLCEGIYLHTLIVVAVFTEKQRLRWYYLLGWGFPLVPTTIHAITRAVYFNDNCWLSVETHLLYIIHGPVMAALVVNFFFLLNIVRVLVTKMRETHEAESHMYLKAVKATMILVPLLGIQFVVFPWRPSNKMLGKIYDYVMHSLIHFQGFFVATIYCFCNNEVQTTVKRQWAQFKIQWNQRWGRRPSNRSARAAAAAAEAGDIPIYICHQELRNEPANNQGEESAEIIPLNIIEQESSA

C[C@H]1O[C@H](O[C@H]2[C@H](O)[C@@H](O)[C@@H](O[C@H]3[C@H](O)[C@@H](O)C(O)O[C@@H]3CO)O[C@@H]2CO)[C@H](O)[C@@H](O)[C@@H]1N[C@H]1C=C(CO)[C@@H](O)[C@H](O)[C@H]1O (some centres not stated) [ACARBOSE]
Not Active: IC50 [1] | IC50 [2] | IC50 [3] | Ki [3] | IC50 [4] | IC50 [5] | IC50 [6] | IC50 [7]

CC[C@H]1[C@@H]2C[C@H]3[C@@H]4N(C)c5ccccc5[C@]45C[C@@H]([C@@H]2[C@H]5O)N3[C@@H]1O [AJMALINE]
Not Active: IC50 [1] | IC50 [2] | IC50 [3] | Ki [3] | IC50 [4] | IC50 [5] | IC50 [6] | IC50 [7]

NC12CC3CC(CC(C3)C1)C2 [AMANTADINE]
Not Active: IC50 [1] | IC50 [2] | IC50 [3] | Ki [3] | IC50 [4] | IC50 [5] | IC50 [6] | IC50 [7]

NCCCNCCSP(=O)(O)O [AMIFOSTINE]
Not Active: IC50 [1] | IC50 [2] | IC50 [3] | Ki [3] | IC50 [4] | IC50 [5] | IC50 [6] | IC50 [7]

CC(=O)Oc1ccccc1C(=O)O [ASPIRIN]
Not Active: IC50 [1] | IC50 [2] | IC50 [3] | Ki [3] | IC50 [4] | IC50 [5] | IC50 [6] | IC50 [7]

CC(C)c1c(C(=O)Nc2ccccc2)c(-c2ccccc2)c(-c2ccc(F)cc2)n1CC[C@@H](O)C[C@@H](O)CC(=O)O [ATORVASTATIN]
Not Active: IC50 [1] | IC50 [2] | IC50 [3] | Ki [3] | IC50 [4] | IC50 [5] | IC50 [6] | IC50 [7]

CC(=O)OC[C@H]1O[C@@H](n2ncc(=O)[nH]c2=O)[C@H](OC(C)=O)[C@@H]1OC(C)=O [AZARIBINE]
Not Active: IC50 [1] | IC50 [2] | IC50 [3] | Ki [3] | IC50 [4] | IC50 [5] | IC50 [6] | IC50 [7]

C[C@H]1[C@H](NC(=O)/C(=N\OC(C)(C)C(=O)O)c2csc(N)n2)C(=O)N1S(=O)(=O)O [AZTREONAM]
Not Active: IC50 [1] | IC50 [2] | IC50 [3] | Ki [3] | IC50 [4] | IC50 [5] | IC50 [6] | IC50 [7]

O=C(O)CCNC(=O)c1ccc(/N=N/c2ccc(O)c(C(=O)O)c2)cc1 [BALSALAZIDE]
Not Active: IC50 [1] | IC50 [2] | IC50 [3] | Ki [3] | IC50 [4] | IC50 [5] | IC50 [6] | IC50 [7]

COc1cc(OC)c(C(=O)CCCN2CCCC2)c(OC)c1 [BUFLOMEDIL]
Not Active: IC50 [1] | IC50 [2] | IC50 [3] | Ki [3] | IC50 [4] | IC50 [5] | IC50 [6] | IC50 [7]

Cn1c(=O)c2c(ncn2C)n(C)c1=O [CAFFEINE]
Not Active: IC50 [1] | IC50 [2] | IC50 [3] | Ki [3] | IC50 [4] | IC50 [5] | IC50 [6] | IC50 [7]

ClC(Cl)(Cl)Cl [CARBON TETRACHLORIDE]
Not Active: IC50 [1] | IC50 [2] | IC50 [3] | Ki [3] | IC50 [4] | IC50 [5] | IC50 [6] | IC50 [7]

CO/N=C(\C(=O)N[C@@H]1C(=O)N2C(C(=O)O)=C(COC(C)=O)CS[C@H]12)c1csc(N)n1 [CEFOTAXIME]
Not Active: IC50 [1] | IC50 [2] | IC50 [3] | Ki [3] | IC50 [4] | IC50 [5] | IC50 [6] | IC50 [7]

CNC1=Nc2ccc(Cl)cc2C(c2ccccc2)=[N+]([O-])C1 [CHLORDIAZEPOXIDE]
Not Active: IC50 [1] | IC50 [2] | IC50 [3] | Ki [3] | IC50 [4] | IC50 [5] | IC50 [6] | IC50 [7]

Cc1cc(O)cc(C)c1Cl [CHLOROXYLENOL]
Not Active: IC50 [1] | IC50 [2] | IC50 [3] | Ki [3] | IC50 [4] | IC50 [5] | IC50 [6] | IC50 [7]

CCCNC(=O)NS(=O)(=O)c1ccc(Cl)cc1 [CHLORPROPAMIDE]
Not Active: IC50 [1] | IC50 [2] | IC50 [3] | Ki [3] | IC50 [4] | IC50 [5] | IC50 [6] | IC50 [7]

NS(=O)(=O)c1cc(C2(O)NC(=O)c3ccccc32)ccc1Cl (configuration not stated) [CHLORTHALIDONE]
Not Active: IC50 [1] | IC50 [2] | IC50 [3] | Ki [3] | IC50 [4] | IC50 [5] | IC50 [6] | IC50 [7]

O=C(O)CC(O)(CC(=O)O)C(=O)O [CITRIC ACID]
Not Active: IC50 [1] | IC50 [2] | IC50 [3] | Ki [3] | IC50 [4] | IC50 [5] | IC50 [6] | IC50 [7]

CC(C)NCC(O)c1ccccc1Cl (configuration not stated) [CLORPRENALINE]
Not Active: IC50 [1] | IC50 [2] | IC50 [3] | Ki [3] | IC50 [4] | IC50 [5] | IC50 [6] | IC50 [7]
